Measurements taken from patent US10034879B2, “Substituted benzaldehyde compounds and methods for their use in increasing tissue oxygenation” (Global Blood Therapeutics, Inc., priority 2011, dated 2018).
Several values for one entry are separate records, joined by “and”; a condition that tells them apart may be missing. Identical values can stand only once. Like-named read-outs stand apart in the source and are kept apart here.

How the values were obtained:
HbS/A = biological target: T1, HbS/A (Homo sapiens, UniProt P68871+P69905, E7V); assay: Relaxed-to-tense transition assay (R/T assay); type: biochemical; conditions: compound at 30 μm; 3 μM HbS/A
T1 construct: A mixture of HbS/A was purified from blood; from tissue; host or cells: blood of homozygous sickle cell patients
Experimental: A relaxed-to-tense transition assay (“R/T assay”) was used to determine the ability of substituted benzaldehyde compounds to maintain the high-oxygen affinity relaxed (R) state of hemoglobin under deoxygenated conditions. This ability can be expressed as a “delta R” value (i.e., the change in the time-period of the R state after hemoglobin is treated with a compound, as compared to the period without treatment with the compound). Delta R is the % R to remaining after the compounds treatment compared with no treatment (e.g. if R % without treatment is 8% while with treatment with a target compound is 48% R at 30 μM, then % R is 40% for that compound.
A mixture of HbS/A was purified from blood obtained from homozygous sickle cell patients though the Hemoglobinopathy Center at Children's Hospital Oakland Research Institute (CHORI) with Institutional Review Board approval. HbS/A (at a final concentration of 3 μM) was incubated for 1 hr at 37° C. in presence or absence of compounds in […] potassium phosphate buffer, pH=7.4 and 30 μM 2, 3 diphosphoglycerate (DPG) in 96 well plates in a final volume of 160 μl. Compounds were added at different concentrations (3 μM to 100 μM final concentrations). Plates were covered with a Mylar film. After incubation was completed the Mylar cover was removed and the plates were placed in a Spectrostar Nano plate reader previously heated at 37° C. Five minutes later, N2 (flow rate=20 L/min) was flowed through the spectrophotometer. Spectroscopic measurements (300 nm to 700 nm) were taken every 5 min for 2 hours. Data analysis was performed by using linear regression from the data retrieved for all wavelengths.
Table 4 below lists the delta R values where + indicates a delta R of between 0 and 30, ++ indicates a delta R of between 30 and 50, and +++ indicates a delta R of 50 or greater. Unless noted otherwise, the compounds in Table 2 were tested at 9 μM.

HbS = biological target: T2, HbS (Homo sapiens, UniProt P68871+P69905, E7V); assay: Whole blood assay, oxygen equilibrium curves of whole blood from sickle cell patients; type: cell-based; conditions: hematocrit 20%, compound at 1000 μM
T2 construct: Oxygen Equilibrium Curves (OEC) of whole blood before and after treatment; endogenous in cells; host or cells: whole blood (red blood cells) of homozygous sickle cell patients
Experimental: Oxygen Equilibrium Curves (OEC) of whole blood before and after treatment with different concentrations of substituted benzaldehyde compounds were performed as follows using a HEMOX analyzer (TCS Scientific, New Hope, Pa.). Blood samples from homozygous sickle cell patients were obtained though the Hemoglobinopathy Center at Children's Hospital Oakland Research Institute (CHORI) with Institutional Review Board approval. The hematocrit was adjusted to 20% using autologous plasma and the blood samples were incubated for 1 hour at 37° C. in absence or presence of compounds. 100 μl of these samples were added to 5 mL of Hemox buffer (30 mM TES, 130 mM NaCl, 5 mM KCl, pH=7.4) at 37° C. and then transferred to the Hemox sample chamber. The samples were saturated with oxygen by flushing with compressed air for 10 minutes. The samples were then flushed with pure nitrogen and the respective absorbances of oxy- and deoxy-Hb are recorded as a function of the solution pO2. The oxygen equilibrium data were then fitted to the Hill Model to obtain values for p50. The deoxygenation curves for both whole blood alone (control) and whole blood in the presence of the compound were collected with the TCS software.
Table 5 below lists the delta p50% values where + indicates a delta p50% of between 0 and 29, ++ indicates a delta p50% of between 30 and 50, and +++ indicates a delta p50% of 50 or greater. The compounds in Table 2 were tested at 1000 μM.

[1] = Pharmacokinetic I.V. study in rat; type: in vivo, Sprague Dawley rats; conditions: 7.8 mpk IV; for Vd: read-out: Vss; for half-life: read-out: t½ beta
Experimental: (§1) Sprague Dawley rats were treated with 7.8 mg/Kg of Compound 43 dissolved in 10% DMA:[…]:16% ca vitron. At specified time points 10 uL of whole blood/plasma was removed from rats and treated with 490 ul pH 3 buffer+500 uL ACN/IS, then shaken for 1 hour, centrifuged for 10 minutes at […] at 4 C. The supernatant was transferred to a filter plate and centrifuged at 2000 rpm for 1 minute at 4 C. The samples were then analyzed by LC-MS/MS monitoring parent aldehyde.

[2] = Pharmacokinetic oral study in rat; type: in vivo, SD Rats; conditions: for AUClast ratio / Cmax ratio: PO, 100 mg/kg vs 44 mg/kg; for Cmax / Tmax: Sprague-Dawley
Experimental: as §1
SD Rats were treated by gavage with 44 mg/kg and 100 mg/kg dissolved in 10% DMA:90% PEG. At specified time points blood was taken and worked up as described above in the IV Study.

[3] = HCl salt, 0 min, animals A, B, C
[4] = HCl salt, 5 min, animals A, B, C, 7.8 mg/kg
[5] = HCl salt, 15 min, animals A, B, C, 7.8 mg/kg
[6] = HCl salt, 30 min, animals A, B, C, 7.8 mg/kg
[7] = HCl salt, 60 min, animals A, B, C, 7.8 mg/kg
[8] = HCl salt, 120 min, animals A, B, C, 7.8 mg/kg
[9] = HCl salt, 240 min, animals A, B, C, 7.8 mg/kg
[10] = HCl salt, 1440 min, animals A, B, C, 7.8 mg/kg
[11] = Sprague-Dawley, 7.8 mg/kg, Plasma
[12] = Sprague-Dawley, whole blood, 7.8 mg/kg, Blood
[13] = whole blood, PO 44 mg/kg, Blood
[14] = whole blood, PO 100 mg/kg, Blood

- AUClast ([1]; Blood): 215846.3 µmol·min/L
- blood conc [1, 3]: BLLOQ
- plasma conc [1, 3]: BLLOQ
- blood conc [1, 4]: 246 µM and 281 µM
- plasma conc [1, 4]: 8.68 µM and 7.44 µM
- blood conc [1, 5]: 341 µM and 285 µM
- plasma conc [1, 5]: 8.42 µM and 7.16 µM
- blood conc [1, 6]: 333 µM and 292 µM
- plasma conc [1, 6]: 7.1 µM
- blood conc [1, 7]: 203 µM and 285 µM
- plasma conc [1, 7]: 7.52 µM and 7.22 µM
- blood conc [1, 8]: 274 µM and 280 µM
- plasma conc [1, 8]: 6.02 µM and 5.22 µM
- blood conc [1, 9]: 225 µM and 259 µM
- plasma conc [1, 9]: 5.24 µM and 5.88 µM
- plasma conc ([1]; HCl salt, 480 min, animals A, B, C, 7.8 mg/kg): 2.66 µM and 3.15 µM
- blood conc [1, 10]: 85 µM and 70.8 µM
- plasma conc [1, 10]: 1.38 µM and 1.51 µM
- AUClast ([1]; Plasma): 4114.8 µmol·min/L
- clearance [1, 11]: 4.45 mL/min/kg
- Vd [1, 11]: 4.11 L/kg
- half-life [1, 11]: 10.3 h
- concentration at 5 min ([1]; Sprague-Dawley, plasma, iv, 7.8 mg/kg, HCl salt, 5 min, animals A, B, C, read-out: plasma conc): 7.56 µM
- concentration at 15 min ([1]; Sprague-Dawley, plasma, iv, 7.8 mg/kg, HCl salt, 15 min, animals A, B, C, read-out: plasma conc): 8.38 µM
- concentration at 30 min ([1]; Sprague-Dawley, plasma, iv, 7.8 mg/kg, HCl salt, 30 min, animals A, B, C, read-out: plasma conc): 8.66 µM
- concentration at 60 min ([1]; Sprague-Dawley, plasma, iv, 7.8 mg/kg, HCl salt, 60 min, animals A, B, C, read-out: plasma conc): 6.12 µM
- concentration at 120 min ([1]; Sprague-Dawley, plasma, iv, 7.8 mg/kg, HCl salt, 120 min, animals A, B, C, read-out: plasma conc): 3.92 µM
- concentration at 240 min ([1]; Sprague-Dawley, plasma, iv, 7.8 mg/kg, HCl salt, 240 min, animals A, B, C, read-out: plasma conc): 3.72 µM
- concentration at 480 min ([1]; Sprague-Dawley, plasma, iv, 7.8 mg/kg, HCl salt, 480 min, animals A, B, C, read-out: plasma conc): 2.06 µM
- concentration at 1440 min ([1]; Sprague-Dawley, plasma, iv, 7.8 mg/kg, HCl salt, 1440 min, animals A, B, C, read-out: plasma conc): 1.07 µM
- clearance [1, 12]: 0.08 mL/min/kg
- Vd [1, 12]: 0.09 L/kg
- half-life [1, 12]: 12.5 h
- concentration at 5 min ([1]; Sprague-Dawley, whole blood, iv, 7.8 mg/kg, HCl salt, 5 min, animals A, B, C, read-out: blood conc): 259 µM
- concentration at 15 min ([1]; Sprague-Dawley, whole blood, iv, 7.8 mg/kg, HCl salt, 15 min, animals A, B, C, read-out: blood conc): 287 µM
- concentration at 30 min ([1]; Sprague-Dawley, whole blood, iv, 7.8 mg/kg, HCl salt, 30 min, animals A, B, C, read-out: blood conc): 283 µM
- concentration at 60 min ([1]; Sprague-Dawley, whole blood, iv, 7.8 mg/kg, HCl salt, 60 min, animals A, B, C, read-out: blood conc): 256 µM
- concentration at 120 min ([1]; Sprague-Dawley, whole blood, iv, 7.8 mg/kg, HCl salt, 120 min, animals A, B, C, read-out: blood conc): 263 µM
- concentration at 240 min ([1]; Sprague-Dawley, whole blood, iv, 7.8 mg/kg, HCl salt, 240 min, animals A, B, C, read-out: blood conc): 248 µM
- concentration at 1440 min ([1]; Sprague-Dawley, whole blood, iv, 7.8 mg/kg, HCl salt, 1440 min, animals A, B, C, read-out: blood conc): 81.1 µM
- AUClast ([2]; PO 44 mg/kg, Blood): 395638.27 µmol·min/L
- AUClast ([2]; PO 44 mg/kg, Plasma): 12517.54 µmol·min/L
- AUClast ([2]; PO 100 mg/kg, Blood): 1384101.11 µmol·min/L
- AUClast ([2]; PO 100 mg/kg, Plasma): 52836.17 µmol·min/L
- AUClast ratio ([2]; Blood): 3.50
- Cmax ratio ([2]; Blood): 2.88
- AUClast ratio ([2]; Plasma): 4.22
- Cmax ratio ([2]; Plasma): 3.01
- Cmax ([2]; PO 44 mg/kg, Plasma): 14.8 µM
- Tmax ([2]; PO 44 mg/kg, Plasma): 3.33 h
- Cmax ([2]; PO 100 mg/kg, Plasma): 44.5 µM
- Tmax ([2]; PO 100 mg/kg, Plasma): 11.3 h
- Cmax [2, 13]: 381 µM
- Tmax [2, 13]: 5.33 h
- Cmax [2, 14]: 1100 µM
- Tmax [2, 14]: 12 h
Compound: CC(C)n1nccc1-c1ncccc1COc1cccc(O)c1C=O [Compound 43, 2-hydroxy-6-((2-(1-isopropyl-1H-pyrazol-5-yl)pyridin-3-yl)methoxy)benzaldehyde]
- delta R (%) (HbS/A): +++ (30 μm) (+++ indicates a delta R of 50 or greater)
- delta p50% (HbS): +++ (+++ indicates a delta p50% of 50 or greater)
